Assay results published in paper PMC5007552, “The hVps34‐SGK3 pathway alleviates sustained PI3K/Akt inhibition by stimulating mTORC1 and tumour growth” (The EMBO Journal, 2016).

System: BT-474 xenograft tumours
Assay: Cleaved caspase-3 immunohistochemistry of xenograft tumours
Assay type: in vivo, mice
Details: end of treatment, 4 h after last dosage
Description: Figure 8 Dual treatment with Akt and SGK inhibitors reduces tumour growth in BT‐474 xenograft model • BT‐474 cells were treated for the indicated times with 0.3 μM MK‐2206. The cell lysates were analysed by immunoblot using the indicated antibodies. • BT‐474c cells were treated with inhibitors as indicated either as monotherapy or in combination and cell confluency measured on the Incucyte ZOOM every 4 h for up to 4 weeks. • BT‐474 cells were injected subcutaneously into athymic Foxn1 ^nu nude mice. […] The tumour volume was measured twice a week. Tumour growth is represented as the fold change mean ± SEM. • All mice were weighed at the end of the treatments. […] Apoptotic cells were counted in 25 fields per condition (left panel) and quantified as clCasp3‐positive cells/field (right panel). […] Six different tumours were analysed from each treatment group and each line represents one tumour sample. […]
Experiments involving mice were in accordance with Institutional Guidelines of Memorial Sloan Kettering Cancer Center (Protocol number 12‐10‐019). […] When tumours reached a volume of ~150 mm^3, mice were randomised, treated, and tumours were measured twice a week. Tumour volume was determined using the following formula: (length × width^2) ÷ 2. […]

## NC1(c2ccc(-c3nc4ccn5c(=O)[nH]nc5c4cc3-c3ccccc3)cc2)CCC1 [MK-2206]
  number of apoptotic (cleaved caspase-3 positive) cells in tumours: increased number of apoptotic cells
